# Assay results reported in patent publication US20190365675A1, “COMPOSITIONS FOR THE PREVENTION AND/OR TREATMENT OF ALCOHOL USE DISORDERS” (SERVICIO ANDALUZ DE SALUD, priority 2016, published 2019).
# Experiments:
# MCP-1 = MCP-1 levels (ELISA) in frontal cortex after ethanol intoxication; format: in vivo, Wistar rats; conditions: OEA pre-treatment
# Protocol: The animals were treated with intragastric (i.g.) ethanol 3 times a day using an i.g. cannula (16G needle, Fisher Scientific, Waltham, Mass., USA), following a protocol based on a slightly modified standard 4-day alcohol intoxication pattern (Bernier et al., 2002a, b) (FIG. 1A). The ethanol doses were administered every 8 h for a total time of 4 days. The rats treated with ethanol received an initial loading dose of 5 g/kg of ethanol in a 30% solution (w/v) and then a maximum maintenance dose of 3 g/kg, which were determined based on blood ethanol levels (BEL). This repeated standard alcohol intoxication paradigm kept BEL intoxication relatively constant in a range of sedation/ataxia (190 to 430 mg/dl, Table 3), according to the 6-point alcohol intoxication behavior scale (Majchrowicz, 1975). The mean dose of ethanol/rat/day (days 1-4) was 7.06 g/kg, similar to other studies (Obernier et al., 2002a, b). […] The levels of soluble HMGB1, TNF-α, IL-1β and MCP-1 were determined by means of a commercially available enzyme-linked immunosorbent assay kit (ELISA) (Elabscience Biotechnology Co., Ltd., China, for HMGB-1; RayBiotech®, GA, USA, for TNF-α, IL-1β, and MCP-1). The nuclear/cytosol HMGB1 fraction was determined by means of Western blot analysis.
# NF-kB p65 subunit = assay: NF-κB p65 mRNA and nuclear activity (ELISA-based kit) in frontal cortex after ethanol intoxication; format: in vivo, Wistar rats
# Protocol: The animals were treated with intragastric (i.g.) ethanol 3 times a day using an i.g. cannula (16G needle, Fisher Scientific, Waltham, Mass., USA), following a protocol based on a slightly modified standard 4-day alcohol intoxication pattern (Bernier et al., 2002a, b) (FIG. 1A). The ethanol doses were administered every 8 h for a total time of 4 days. The rats treated with ethanol received an initial loading dose of 5 g/kg of ethanol in a 30% solution (w/v) and then a maximum maintenance dose of 3 g/kg, which were determined based on blood ethanol levels (BEL). This repeated standard alcohol intoxication paradigm kept BEL intoxication relatively constant in a range of sedation/ataxia (190 to 430 mg/dl, Table 3), according to the 6-point alcohol intoxication behavior scale (Majchrowicz, 1975). […] The quantitative changes in mRNA levels were estimated by means of RT-PCR, carried out in the presence of the SYBR green primer using a 20-L reaction in a Rotor-Gene (Corbett Research®, Mortlake, NSW, Australia). […] The nuclear extracts of the frontal cortex were incubated with specific NF-kB p65 subunit response element probes, and the binding of p65 to its probe was detected using an antibody specific for this subunit. A secondary antibody labeled by means of horseradish peroxidase was added, and the binding was detected by means of spectrophotometry at 450 nm. […]
structure (smiles),measurement,setting,value
"CCCCCCCC/C=C\CCCCCCCC(=O)NCCO [OEA, oleoylethanolamide]",Ethanol-induced increase in MCP-1 levels,MCP-1,prevented
same,Ethanol-induced increase in nuclear activity of p65,"NF-kB p65 subunit; frontal cortex nuclear extracts, OEA pre-treatment",counteracted
same,Ethanol-induced increase in p65 mRNA levels,"NF-kB p65 subunit; frontal cortex, OEA pre-administration",partially prevented
